Patent publication US12226396B2, “Gluconic acid derivatives for use in the treatment and/or prevention of microbial infections” (GEDEA BIOTECH AB, priority 2017, dated 2025)

Columns and labels:
[1] = test system: Porphyromonas gingivalis CCUG 25893/ATCC 33277; experiment: MIC microdilution test; type: cell-based; settings: CCUG 25893, strict anaerobic conditions
Procedure: The test substance solution was prepared aseptically at 1 g/ml in sterile H2O. […] After 48 and 72 hours of incubation, the OD was measured and ocular assessments were done. […] All strains were recovered from microbanks and streak and subculture plates were made. The aerobes on TSA plates, the fastidious aerobes on horse blood plates and the anaerobe on FAA plates. […] At the time of testing, loopfuls of colonies selected from 18- to 24-hour agar plates for the aerobes and fastidious aerobes were suspended in 5 ml saline in 10 ml tubes containing 10 glass beads a 3 mm in diameter. […] The cell suspensions were then vortexed vigorously for 1 minute to obtain a turbid suspension. Each suspension of the aerobes and fastidious aerobes was adjusted to equal OD 0.28 at 475 nm using a spectrophotometer, which correlates approximately to 1-3×10^8 CFU/ml with most species. For the anaerobe, the OD measurement turned out to be difficult due to the use of blood in the culture medium. […] The aerobes and fastidious aerobes were further diluted in saline 10 times so that the inoculum concentration equaled to […]. The anaerobe was not diluted but used directly as is. The different aerobic and fastidious aerobic bacterial suspensions were transferred to respective wells of a 96 well plate. A. baumannii, E. coli, and P. aeruginosa were placed in one row, the Staphylococci spp. were placed in a second row, and the fastidious aerobes were placed in a third row of the plate. The anaerobe was transferred from a 25 ml multichannel pipette reservoir. The Microdilution Preparations and the MIC tests were performed as in example 13.

[2] = test system: C. albicans; experiment: Mature biofilm cell survival, serial dilution plating on YPD; type: cell-based, Candida albicans
Procedure: (§1) The plated cells were incubated for 24 h at 37° C. and visually analyzed. The cells from the mature biofilm treated with water were used as a control. […] At the concentrations of 0.2 and 0.5 g/ml after 5 h of incubation the cell viability was decreased by about 100 times for both C. albicans and C. glabrata.

[3] = test system: Candida glabrata; experiment: Biofilm formation in a model of in vivo conditions (pellet release in pH 3.71 buffer); type: cell-based; settings: pellet 2.5 g in pH 3.71 buffer at 37° C, sample after 1 h, diluted 50 times, biofilm after 24 h
Procedure: (§2) Biofilm was measured in liquid culture as described [K. Scherz et al., G3 (Bethesda), 2014, 4, 1671-1680. I. Serrano-Fujarte et al. Biomed Res Int. 2015; 2015:783639] with some modifications. Prior the biofilm assay, yeast cultures were grown in liquid YPD medium for 24 hours until stationary phase (OD600 11-17)^2, cells were then pelleted by centrifugation (1699 g), washed with sterile water and cells were further inoculated into test biofilm medium (YNB (yeast nitrogen base without amino acids and ammonium sulphate) supplemented with 0.5% ammonium sulphate, 0.2% glucose and 100 mM L-proline pH7.0) at final concentration 0.2 OD600/ml and incubated in 96-well flat-bottom polystyrene microtiter plates (Sigma Aldrich, Corning® Costar® culture plates, CLS3596-50EA) for 72 hours at 37° C. thermostat. At defined time points crystal violet (HT901-8FOZ; Sigma Aldrich) was added to the media at the final concentration 0.05%, in addition total biomass was measured. After 24 hours of cells staining, plate wells were washed four times with 200 μl of water to remove planktonic cells, biofilms were then dried and dissolved in 200 μl of 96% ethanol. Total biomass and crystal violet biofilm staining measurements were performed at OD560 with FLUOstar OPTIMA plate reader, BMG LABTECH. Crystal violet biofilm measurements were normalized to the total biomass (OD560Biofilm/OD560 total biomass).
(§3) Pellet of lactonized/oligomerized gluconic acid (1.3 g, duplicate samples) were added to buffer solution of pH 3.71 (0.5 M KH2PO/ortho phosphoric acid, 10 mL) at 37° C. Samples (4 mL) were taken every hour (1, 2, 3, 4, 5, 6 and 24 h) and new buffer solution (4 mL) was added. The samples were diluted 50 times with biofilm medium (vide supra) and the amount of biofilm formation was measured after 24 h as described above. […]
(§4) Samples (4 mL) were taken at fixed time points (1, 2, 3, 4, 5, 6 and 24 h) and new buffer solution (4 mL) was added. The samples were diluted 50 times with biofilm medium (vide supra) and the amount of biofilm formation was measured after 24 h as described above. […]

[4] = test system: Candida albicans; experiment: as above; type: cell-based
Procedure: as §2, §3, §4

[5] = test system: C. albicans; experiment: Viability of mature biofilm, XTT assay; type: cell-based, Candida albicans; settings: 48 h of incubation with GDA
Procedure: XXT is a colorimetric assay for quantification of cellular viability, and cytotoxicity. The assay is based on the cleavage of the tetrazolium salt XTT, a conversion that only occurs in viable cells. […] Then the cells were washed 2 times with PBS, after which the XTT reaction mixture was added. After 30 min the optical density measured at 485 nm.

[6] = test system: C. glabrata; experiment: Mature biofilm cell survival, serial dilution plating on YPD; type: cell-based, Candida glabrata; settings: 0.2 and 0.5 g/ml, 5 h of incubation, 37° C
Procedure: as §1

`O=C1O[C@H](CO)[C@@H](O)[C@H](O)[C@H]1O` [GDA, glucono-δ-lactone] was tested, and the “MIC (g/ml)” value [1] was 0.0031 g/ml, the “decrease of cell viability” value ([2]; 0.2 and 0.5 g/ml, 5 h of incubation, 37° C) was “about 100 times” and the “decrease of cell viability” value ([2]; 0.5 g/ml, 73 h of incubation) was “about 1000 times”. The “Normalized biofilm (% of control), 1 h” value [3] was 71 % of control, the “Normalized biofilm (% of control), 1 h” value ([4]; pellet 2.5 g in pH 3.71 buffer at 37° C, sample after 1 h, diluted 50 times, biofilm after 24 h) was 8.3 % of control and the “duration of preventive effect on biofilm formation from pellet hydrolysis” value ([4]; pellet in pH 3.71 buffer, samples 1-24 h diluted 50 times) was at least 24 h. The “decrease in viability of mature biofilm (XTT)” value [5] was “clearly seen” and the “decrease of cell viability” value [6] was “about 100 times”.
